Test results taken from patent publication US11040035B2, “3-oxo-2,6-diphenyl-2,3-dihydropyridazine-4-carboxamides” (BAYER PHARMA AKTIENGESELLSCHAFT, priority 2016, dated 2021).

Assays:
[1] = target: T1, AHR (Homo sapiens, UniProt P35869); assay: In vitro assay 1: antagonism in human cell line (transactivation assay, kynurenic acid prestimulated); conditions: Assay 1: AHR-luc Hum Antagonism IC50 [M], 150 μM kynurenic acid, 20 hours, firefly luciferase
T1 sequence (P35869 11-848): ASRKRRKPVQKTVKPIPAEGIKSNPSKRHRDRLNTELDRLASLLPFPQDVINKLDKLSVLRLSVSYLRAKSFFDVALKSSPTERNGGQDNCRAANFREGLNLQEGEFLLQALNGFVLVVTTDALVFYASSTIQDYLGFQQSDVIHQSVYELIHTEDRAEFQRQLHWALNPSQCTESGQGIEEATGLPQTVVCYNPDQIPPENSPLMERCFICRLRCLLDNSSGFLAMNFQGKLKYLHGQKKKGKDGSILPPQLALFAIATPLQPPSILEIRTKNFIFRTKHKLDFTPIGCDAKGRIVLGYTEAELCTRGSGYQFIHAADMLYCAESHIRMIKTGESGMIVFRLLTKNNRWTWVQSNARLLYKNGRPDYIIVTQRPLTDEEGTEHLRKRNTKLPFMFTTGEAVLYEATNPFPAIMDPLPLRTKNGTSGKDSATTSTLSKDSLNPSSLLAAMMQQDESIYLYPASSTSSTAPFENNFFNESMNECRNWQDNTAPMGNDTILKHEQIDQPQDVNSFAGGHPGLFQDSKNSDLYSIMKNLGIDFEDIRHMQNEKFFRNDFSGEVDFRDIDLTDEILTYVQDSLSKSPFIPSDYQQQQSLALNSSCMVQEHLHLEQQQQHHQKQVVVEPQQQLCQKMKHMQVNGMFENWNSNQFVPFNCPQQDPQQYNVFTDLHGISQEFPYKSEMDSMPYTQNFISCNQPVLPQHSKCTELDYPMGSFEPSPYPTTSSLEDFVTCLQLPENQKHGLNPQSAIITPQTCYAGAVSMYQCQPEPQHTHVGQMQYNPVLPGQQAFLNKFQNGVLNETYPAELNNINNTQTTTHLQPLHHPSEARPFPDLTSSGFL

[2] = target: T1, AHR; assay: In vitro assay 2: agonism in human cell line (transactivation assay); conditions: Assay 2: AHR-luc Hum Agonism IC50 [M], no kynurenic acid, 20 hours, firefly luciferase

SMILES | IC50 [1] | IC50 [2]
O=C(N[C@@H](CO)Cc1cnc[nH]1)c1cc(-c2ccc(Cl)cc2)nn(-c2cccc(F)c2)c1=O [Example 161, 6-(4-Chlorophenyl)-2-(3-fluorophenyl)-N-[(2R)-1-hydroxy-3-(1H-imidazol-5-yl)propan-2-yl]-3-oxo-2,3-dihydropyridazine-4-carboxamide] | 3.15e-07 M | > 2e-05 M
NC(=O)[C@H](CO)NC(=O)c1cc(-c2ccc(Cl)cc2)nn(-c2cccc(F)c2)c1=O [Example 162, N-[(2S)-1-Amino-3-hydroxy-1-oxopropan-2-yl]-6-(4-chlorophenyl)-2-(3-fluorophenyl)-3-oxo-2,3-dihydropyridazine-4-carboxamide] | 4.83e-07 M | > 2e-05 M
NC(=O)CC(CO)NC(=O)c1cc(-c2ccc(Cl)cc2)nn(-c2cccc(F)c2)c1=O (centres unmarked) [Example 163, N-(4-Amino-1-hydroxy-4-oxobutan-2-yl)-6-(4-chlorophenyl)-2-(3-fluorophenyl)-3-oxo-2,3-dihydropyridazine-4-carboxamide] | 4.98e-07 M | > 2e-05 M
O=C(N[C@@H](CO)C(=O)O)c1cc(-c2ccc(Cl)cc2)nn(-c2cccc(F)c2)c1=O [Example 165, N-{[6-(4-Chlorophenyl)-2-(3-fluorophenyl)-3-oxo-2,3-dihydropyridazin-4-yl]carbonyl}-L-serine] | > 2e-05 M | > 2e-05 M
O=C(NC(CO)C1CCOC1)c1cc(-c2ccc(OC(F)(F)F)cc2)nn(-c2cccc(F)c2)c1=O (centres unmarked) [Example 174, 2-(3-Fluorophenyl)-N-[2-hydroxy-1-(tetrahydrofuran-3-yl)ethyl]-3-oxo-6-[4-(trifluoromethoxy)phenyl]-2,3-dihydropyridazine-4-carboxamide] | 3.33e-08 M | > 2e-05 M
CC(O)C(C)NC(=O)c1cc(-c2ccc(OC(F)(F)F)cc2)nn(-c2cccc(F)c2)c1=O (centres unmarked) [Example 179, 2-(3-Fluorophenyl)-N-(3-hydroxybutan-2-yl)-3-oxo-6-[4-(trifluoromethoxy)phenyl]-2,3-dihydropyridazine-4-carboxamide] | 7.36e-08 M | > 2e-05 M
CC(C)(O)CNC(=O)c1cc(-c2ccc(Cl)cc2)nn(-c2cccc(F)c2)c1=O [Example 188, 6-(4-Chlorophenyl)-2-(3-fluorophenyl)-N-(2-hydroxy-2-methylpropyl)-3-oxo-2,3-dihydropyridazine-4-carboxamide] | 7.88e-08 M | > 2e-05 M
O=C(NCC1(O)CC1)c1cc(-c2ccc(Cl)cc2)nn(-c2cccc(F)c2)c1=O [Example 196, 6-(4-Chlorophenyl)-2-(3-fluorophenyl)-N-[(1-hydroxycyclopropyl)methyl]-3-oxo-2,3-dihydropyridazine-4-carboxamide] | 1.04e-07 M | > 2e-05 M
C[C@@H](O)CCNC(=O)c1cc(-c2ccc(Cl)cc2)nn(-c2cccc(F)c2)c1=O [Example 204, (−)-6-(4-Chlorophenyl)-2-(3-fluorophenyl)-N-[(3R)-3-hydroxybutyl]-3-oxo-2,3-dihydropyridazine-4-carboxamide] | 3.85e-07 M | > 2e-05 M
C[C@H](O)CCNC(=O)c1cc(-c2ccc(Cl)cc2)nn(-c2cccc(F)c2)c1=O [Example 205, (+)-6-(4-Chlorophenyl)-2-(3-fluorophenyl)-N-[(3S)-3-hydroxybutyl]-3-oxo-2,3-dihydropyridazine-4-carboxamide] | 2.12e-07 M | > 2e-05 M
O=C(NC1(CO)CCCC1)c1cc(-c2ccc(Cl)cc2)nn(-c2cccc(F)c2)c1=O [Example 214, 6-(4-Chlorophenyl)-2-(3-fluorophenyl)-N-[1-(hydroxymethyl)cyclopentyl]-3-oxo-2,3-dihydropyridazine-4-carboxamide] | 8.32e-08 M | > 2e-05 M
O=C(NC1(CO)CCCCC1)c1cc(-c2ccc(Cl)cc2)nn(-c2cccc(F)c2)c1=O [Example 215, 6-(4-Chlorophenyl)-2-(3-fluorophenyl)-N-[1-(hydroxymethyl)cyclohexyl]-3-oxo-2,3-dihydropyridazine-4-carboxamide] | 1.66e-07 M | > 2e-05 M
O=C(N[C@@H](CO)Cc1ccccc1)c1cc(-c2ccc(Cl)cc2)nn(-c2cccc(F)c2)c1=O [Example 219, (+)-6-(4-Chlorophenyl)-2-(3-fluorophenyl)-N-[(2R)-1-hydroxy-3-phenylpropan-2-yl]-3-oxo-2,3-dihydropyridazine-4-carboxamide] | 3.38e-06 M | > 2e-05 M
O=C(NC(CO)CO)c1cc(-c2ccc(Cl)cc2)nn(-c2cccc(F)c2)c1=O [Example 228, 6-(4-Chlorophenyl)-N-(1,3-dihydroxypropan-2-yl)-2-(3-fluorophenyl)-3-oxo-2,3-dihydropyridazine-4-carboxamide] | 3.35e-07 M | > 2e-05 M
CN1CCC(O)(CNC(=O)c2cc(-c3ccc(Cl)cc3)nn(-c3cccc(F)c3)c2=O)CC1 [Example 234, 6-(4-Chlorophenyl)-2-(3-fluorophenyl)-N-[(4-hydroxy-1-methylpiperidin-4-yl)methyl]-3-oxo-2,3-dihydropyridazine-4-carboxamide] | 1.56e-06 M | > 2e-05 M
C[C@H](CO)NC(=O)c1cc(-c2ccc(C(F)(F)F)cc2)nn(-c2cccc(F)c2)c1=O [Example 238, 2-(3-Fluorophenyl)-N-[(2R)-1-hydroxypropan-2-yl]-3-oxo-6-[4-(trifluoromethyl)phenyl]-2,3-dihydropryridazine-4-carboxamide] | 9.88e-08 M | > 2e-05 M
O=C(N[C@@H](CO)Cc1ccccc1)c1cc(-c2ccc(C(F)(F)F)cc2)nn(-c2cccc(F)c2)c1=O [Example 252, 2-(3-Fluorophenyl)-N-[(2R)-1-hydroxy-3-phenylpropan-2-yl]-3-oxo-6-[4-(trifluoromethyl)phenyl]-2,3-dihydropyridazine-4-carboxamide] | 6.43e-06 M | > 2e-05 M
O=C(N[C@H]1COCC[C@H]1O)c1cc(-c2ccc(Cl)cc2)nn(-c2cccc(F)c2)c1=O [Example 273, 1,5-Anhydro-2-({[6-(4-chlorophenyl)-2-(3-fluorophenyl)-3-oxo-2,3-dihydropyridazin-4-yl]carbonyl}amino)-2,4-dideoxy-D-erythro-pentitol] | 4.31e-08 M | > 2e-05 M
O=C(NC(CO)(CO)C(F)(F)F)c1cc(-c2ccc(Cl)cc2)nn(-c2cccc(F)c2)c1=O [Example 280, 6-(4-Chlorophenyl)-2-(3-fluorophenyl)-3-oxo-N-[1,1,1-trifluoro-3-hydroxy-2-(hydroxymethyl)propan-2-yl]-2,3-dihydropyridazine-4-carboxamide] | 1.92e-08 M | > 2e-05 M
O=C(NCC(O)C(F)(F)F)c1cc(-c2ccc(Cl)c(F)c2)nn(-c2cccc(F)c2)c1=O (centres unmarked) [Example 282, 6-(4-chloro-3-fluorophenyl)-2-(3-fluorophenyl)-3-oxo-N-(3,3,3-trifluoro-2-hydroxypropyl)-2,3-dihydropyridazine-4-carboxamide] | 1.81e-07 M | > 2e-05 M
CC(C)[C@@H](CO)NC(=O)c1cc(-c2ccc(Cl)c(F)c2)nn(-c2cccc(F)c2)c1=O [Example 285, 6-(4-Chloro-3-fluorophenyl)-2-(3-fluorophenyl)-N-[(2S)-1-hydroxy-3-methylbutan-2-yl]-3-oxo-2,3-dihydropyridazine-4-carboxamide] | 9.39e-08 M | > 2e-05 M
C[C@@H](CO)NC(=O)c1cc(-c2ccc(Cl)c(F)c2)nn(-c2cccc(F)c2)c1=O [Example 286, 6-(4-Chloro-3-fluorophenyl)-2-(3-fluorophenyl)-N-[(2S)-1-hydroxypropan-2-yl]-3-oxo-2,3-dihydropyridazine-4-carboxamide] | 2.77e-07 M | > 2e-05 M
O=C(NC(CO)C1CCOC1)c1cc(-c2ccc(Cl)c(F)c2)nn(-c2cccc(F)c2)c1=O (centres unmarked) [Example 287, 6-(4-Chloro-3-fluorophenyl)-2-(3-fluorophenyl)-N-[2-hydroxy-1-[-tetrahydrofuran-3-yl]ethyl]-3-oxo-2,3-dihydropyridazine-4-carboxamide] | 1.29e-07 M | > 2e-05 M
CC(O)C(C)NC(=O)c1cc(-c2ccc(Cl)c(F)c2)nn(-c2cccc(F)c2)c1=O (centres unmarked) [Example 289, 6-(4-Chloro-3-fluorophenyl)-2-(3-fluorophenyl)-N-(3-hydroxybutan-2-yl)-3-oxo-2,3-dihydropyridazine-4-carboxamide] | 1.44e-07 M | > 2e-05 M
COc1ccc(-c2cc(C(=O)N[C@@H](C)CO)c(=O)n(-c3cccc(F)c3)n2)cc1 [Example 297, 2-(3-Fluorophenyl)-N-[(2S)-1-hydroxypropan-2-yl]-6-(4-methoxyphenyl)-3-oxo-2,3-dihydropyridazine-4-carboxamide] | 8.72e-08 M | > 2e-05 M
